Values joined by “and” are separate entries in the source; they are usually repeats but may differ in a detail not shown here. Equal entries are not always repeated.
Columns and labels:
[1] = Ascorbate oxidation assay (redox activity of iron complexes); type: biochemical;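 as to %Fe 30min (ascorbate oxidation, Fe 100%), průměr: IBE 3 means excess free chelator over iron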;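 as to %Fe 30min (ascorbate oxidation, Fe 100%): IBE 3 means excess free chelator over iron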;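 as to Change of absorbance, odečet 0 (time 0 subtracted), čas 10, průměr: IBE 3 means excess free chelator over 10 µM FeCl3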;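 as to Change of absorbance, odečet 0 (time 0 subtracted), čas 10: IBE 3 means excess free chelator over 10 µM FeCl3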;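 as to Change of absorbance, odečet 0 (time 0 subtracted), čas 20, průměr: 100 µM ascorbate with 10 µM FeCl3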;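 as to Change of absorbance, odečet 0 (time 0 subtracted), čas 20: 100 µM ascorbate with 10 µM FeCl3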;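 as to Change of absorbance, odečet 0 (time 0 subtracted), čas 30, průměr: 100 µM ascorbate with 10 µM FeCl3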;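 as to Change of absorbance, odečet 0 (time 0 subtracted), čas 30: 100 µM ascorbate with 10 µM FeCl3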;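 as to odečet 0 (reading minus time 0 reading) at čas 20, single replicates: IBE 1 means fully coordinated iron chelator complexes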;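 as to odečet 0 (reading minus time 0 reading) at čas 30, průměr (mean): IBE 1 means fully coordinated iron chelator complexes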;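 as to odečet 0 (reading minus time 0 reading) at čas 30, single replicates: IBE 1 means fully coordinated iron chelator complexes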;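 as to raw reading at čas 20 (time 20), průměr (mean): IBE 1 means fully coordinated iron chelator complexes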;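 as to raw reading at čas 20 (time 20), single replicates: IBE 1 means fully coordinated iron chelator complexes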;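 as to raw reading at čas 30 (time 30), průměr (mean): IBE 1 means fully coordinated iron chelator complexes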;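 as to raw reading at čas 30 (time 30), single replicates: IBE 1 means fully coordinated iron chelator complexes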
caspases 3/7 = experiment: Caspase activity, luminescent kit, caspases 3/7; type: cell-based, human; conditions: for kaspáza (3) a 7, průměry (means of raw signal): mean of 4 experiments; for kaspáza (3) a 7, raw signal / kaspáza (3) a 7, signal / viabilita: individual experiments by date
Experimental: To assess the effect of the compounds on caspase activity, MCF-7 cells were incubated with 100 nM Bp4eT or its metabolites for 3, 24 or 72 h/37°C in 96-well plates, as described above. The cells were then lysed by adding 100 μL of cold lysis buffer (100 mM HEPES, 10 mM CHAPS, 10 mM D-L-dithiothreitol, pH 7.4) to 100 μL of medium in each well. Lysates were immediately frozen at -80°C. Thawed lysates were used to assess caspase activity using luminescent kits for caspases 3/7, 8 and 9 (Promega, Madison, WI, USA). The luminescence was measured using the Tecan Infinite 200M plate reader. Caspase activity in the experimental groups was corrected according to the cellular viability of each group and expressed as a percentage of activity of the untreated control (100%).

[2] = sheet IBE 1, time 10, replicates
[3] = sheet IBE 1, time 20, replicates
[4] = sheet IBE 1, time 30, replicates

Activation of caspases 7, 8 and 9 (caspases 3/7; 100 nM, 3 h, MCF-7, statement covers caspases 7, 8 and 9): did not activate any of the caspases
Compound: CCNC(=S)NN=C(c1ccccc1)c1ccccn1 [Bp4eT, 2-benzoylpyridine 4-ethyl-3-thiosemicarbazone]
odečet 0 (reading minus time 0 reading) at čas 10, průměr (mean) ([1]; sheet IBE 1, time 10, mean): -0.1075
raw reading at čas 10 (time 10), průměr (mean) ([1]; sheet IBE 1, time 10, mean of 9 readings): 0.7006
odečet 0 (reading minus time 0 reading) at čas 10, single replicates [1, 2]: -0.1527 and -0.1456 and -0.1532 and -0.1025 and -0.07863 and -0.05463 and -0.1235 and -0.07821 and -0.07861
raw reading at čas 10 (time 10), single replicates [1, 2]: 0.681 and 0.6812 and 0.6776 and 0.6847 and 0.7053 and 0.7091 and 0.7037 and 0.7416 and 0.7217
odečet 0 (reading minus time 0 reading) at čas 20, průměr (mean) ([1]; sheet IBE 1, time 20, mean): -0.1811
raw reading at čas 20 (time 20), průměr (mean) ([1]; sheet IBE 1, time 20, mean of 9 readings): 0.627
odečet 0 (reading minus time 0 reading) at čas 20, single replicates [1, 3]: -0.2337 and -0.2156 and -0.2203 and -0.1671 and -0.1458 and -0.1256 and -0.1987 and -0.1601 and -0.163
raw reading at čas 20 (time 20), single replicates [1, 3]: 0.6 and 0.6112 and 0.6105 and 0.6201 and 0.6381 (2×) and 0.6284 and 0.6597 and 0.6373
odečet 0 (reading minus time 0 reading) at čas 30, průměr (mean) ([1]; sheet IBE 1, time 30, mean): -0.2442
raw reading at čas 30 (time 30), průměr (mean) ([1]; sheet IBE 1, time 30, mean of 9 readings): 0.5639
odečet 0 (reading minus time 0 reading) at čas 30, single replicates [1, 4]: -0.2822 and -0.2643 and -0.2658 and -0.2282 and -0.2102 and -0.1888 and -0.2754 and -0.2425 and -0.2402
raw reading at čas 30 (time 30), single replicates [1, 4]: 0.5515 and 0.5624 and 0.5649 and 0.5591 and 0.5737 and 0.5749 and 0.5518 and 0.5772 and 0.56
%Fe 30min (ascorbate oxidation, Fe 100%), průměr ([1]; sheet IBE 3, 30min, Fe alone = 100%, mean (průměr) of the 9 replicates): 278.6%
%Fe 30min (ascorbate oxidation, Fe 100%) ([1]; sheet IBE 3, 30min, Fe alone = 100%, single replicates): 323.8% and 304.1% and 296.1% and 279.4% and 257.4% and 253.6% and 291.2% and 261% and 240.7%
Change of absorbance, odečet 0 (time 0 subtracted), čas 10, průměr ([1]; sheet IBE 3, time 10 minus time 0, mean (průměr)): -0.09469
Change of absorbance, odečet 0 (time 0 subtracted), čas 10 ([1]; sheet IBE 3, time 10 minus time 0, single replicates): -0.1148 and -0.1115 and -0.1009 and -0.09722 and -0.09232 and -0.09642 and -0.1047 and -0.06955 and -0.06465
Change of absorbance, odečet 0 (time 0 subtracted), čas 20, průměr ([1]; sheet IBE 3, time 20 minus time 0, mean (průměr)): -0.1775
Change of absorbance, odečet 0 (time 0 subtracted), čas 20 ([1]; sheet IBE 3, time 20 minus time 0, single replicates): -0.2173 and -0.2064 and -0.1913 and -0.1735 and -0.1668 and -0.1578 and -0.1895 and -0.1498 and -0.1449
Change of absorbance, odečet 0 (time 0 subtracted), čas 30, průměr ([1]; sheet IBE 3, time 30 minus time 0, mean (průměr)): -0.2575
Change of absorbance, odečet 0 (time 0 subtracted), čas 30 ([1]; sheet IBE 3, time 30 minus time 0, single replicates): -0.3006 and -0.2823 and -0.2749 and -0.2593 and -0.2389 (2×) and -0.2354 and -0.2666 and -0.2203
Caspase 7 activity, % of the control (caspases 3/7; 100 nM, 24 h, MCF-7, corrected for viability): 203%
Caspase 7 activity, % of control (caspases 3/7; 100 nM, 72 h, MCF-7, corrected for viability): 318%
kaspáza (3) a 7, % kontroly (caspases 3/7; 3 hodiny (3 h), % of control): 96.83%
kaspáza (3) a 7, průměry (means of raw signal) (caspases 3/7; 3 hodiny (3 h)): 1616.38
kaspáza (3) a 7, raw signal (caspases 3/7; 3 hodiny): 1828 and 1581 and 1679 and 1377.5
kaspáza (3) a 7, raw signal, průměry (caspases 3/7; 3 hodiny, mean): 1616.38
kaspáza (3) a 7, % kontroly (caspases 3/7; 3 hodiny, mean, normalised to viability): 101.92 % kontroly
kaspáza (3) a 7, signal / viabilita (caspases 3/7; 3 hodiny, normalised to viability): 18.975 and 16.4111 and 17.4284 and 14.2987
kaspáza (3) a 7, signal / viabilita, průměry (caspases 3/7; 3 hodiny, normalised to viability, mean): 16.7783
kaspáza (3) a 7, % kontroly (caspases 3/7; 24 hodin (24 h), % of control): 107.61%
kaspáza (3) a 7, průměry (means of raw signal) (caspases 3/7; 24 hodin (24 h)): 2465.5
kaspáza (3) a 7, raw signal (caspases 3/7; 24 hodin): 2823.5 and 2154.5 and 2683 and 2201
kaspáza (3) a 7, raw signal, průměry (caspases 3/7; 24 hodin, mean): 2465.5
kaspáza (3) a 7, % kontroly (caspases 3/7; 24 hodin, mean, normalised to viability): 203.48 % kontroly
kaspáza (3) a 7, signal / viabilita (caspases 3/7; 24 hodin, normalised to viability): 53.4249 and 40.7664 and 50.7664 and 41.6462
kaspáza (3) a 7, signal / viabilita, průměry (caspases 3/7; 24 hodin, normalised to viability, mean): 46.651
kaspáza (3) a 7, % kontroly (caspases 3/7; 72 hodin (72 h), % of control): 86.15%
kaspáza (3) a 7, průměry (means of raw signal) (caspases 3/7; 72 hodin (72 h)): 6404.25
kaspáza (3) a 7, raw signal (caspases 3/7; 72 hodin): 10190.5 and 6963 and 3947 and 4516.5
kaspáza (3) a 7, raw signal, průměry (caspases 3/7; 72 hodin, mean): 6404.25
kaspáza (3) a 7, % kontroly (caspases 3/7; 72 hodin, mean, normalised to viability): 318.49 % kontroly
kaspáza (3) a 7, signal / viabilita (caspases 3/7; 72 hodin, normalised to viability): 376.172 and 257.032 and 145.7 and 166.722
kaspáza (3) a 7, signal / viabilita, průměry (caspases 3/7; 72 hodin, normalised to viability, mean): 236.406
